The text below walks through data of ChEMBL document CHEMBL1201862, “PubChem BioAssay data set” (2004).

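Dose response: 5 concentrations. Exposure: 48 h. Format: 96-well plates. Endpoint: linear interpolation; highest concentration if not reached. The concentration for 50% growth inhibition is given as GI50.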 Activity calls are given as the source filed them. Rule as the data show it: active = GI50 up to about 1.1 µM and inactive = higher. A value given as a limit tells only on which side of the number the result lay.

Assay in all cases: NCI anticancer screen, dose series, 48 h
The subject of assay [1] is A498.
Assay [2] concerns ACHN.
Assay [3] concerns CCRF-CEM.
Assay [4] concerns HCC 2998.
Assay [5] relates to HOP-62.
For assay [6], the system named is KM12.
Assay [7] relates to MOLT-4.
Assay [8] deals with NCI-H226.
Assay [9] deals with NCI-H23.
For assay [10], the system named is NCI-H522.
In assay [11] the test system is OVCAR-3.
Assay [12] deals with PC-3.
The test system of assay [13] is RPMI-8226.
The test system of assay [14] is SF-268.
Assay [15] deals with TK-10.
Assay [16] has as its system U-251.
Assay [17] concerns UO-31.
For assay [18], the system named is MDA-MB-435.
Assay [19] deals with NCI/ADR-RES.

`O=CN/C=C/c1ccccc1`: the GI50 in [1], in [2], in assay [3], in assay [4], in assay [5] and in assay [6] was > 100 µM (inactive) throughout. For the same compound, the GI50 in assay [7], in [8], in assay [9], in assay [10], in assay [11] and in [12] was > 100 µM (inactive) each time. Besides, the GI50 in [13] was > 100 µM (inactive); in assay [14], > 100 µM (inactive); in assay [15], > 100 µM (inactive); in assay [16] it was > 100 µM (inactive); in assay [17], > 87.3 µM (inactive).

As to `COc1cccc2c1C1(O)C2CCCC12OCCCO2` (stereo not given), the GI50 in assay [1], in assay [2], in [3], in assay [4], in assay [5] and in assay [6] was > 100 µM (inactive) in each case. Besides, the GI50 in assay [7], in assay [8], in assay [9], in [10], in assay [11] and in assay [13] was > 100 µM (inactive) each time. Moreover, the GI50 in assay [14], in assay [15], in [16] and in [17] was > 100 µM (inactive) throughout.

Consider `O=c1nc(-c2ccccc2)c2c3c(cccn13)CCC2`, for which the GI50 was 92 µM (inactive) in assay [1]; > 100 µM (inactive) in assay [2]; > 100 µM (inactive) in [3]; > 100 µM (inactive) in assay [4]; > 100 µM (inactive) in assay [5]; > 100 µM (inactive) in assay [6]. Besides, the GI50 in assay [7] was > 100 µM (inactive); in assay [8], 54 µM (inactive); in assay [9], > 100 µM (inactive); in assay [10] it was > 100 µM (inactive); in [11] it was > 100 µM (inactive); in assay [13], > 100 µM (inactive). Also, the GI50 in assay [14] was > 100 µM (inactive); in [15], > 100 µM (inactive); in assay [16] it was > 100 µM (inactive); in assay [17], 73.6 µM (inactive).

Turning to `COC(=O)C1Cc2c(n(C)c3ccccc23)C(CCC(=O)O)N1Cc1ccccc1` (stereo not given), the GI50 is 15.2 µM (inactive) in [1]; 19.6 µM (inactive) in assay [2]; 25.4 µM (inactive) in assay [3]; > 100 µM (inactive) in assay [4]; > 100 µM (inactive) in [5]; 28.4 µM (inactive) in [6]. The GI50 in [7] was 27.5 µM (inactive); in [8] it was 21.7 µM (inactive); in [9], 26.4 µM (inactive); in [10], 22.7 µM (inactive); in assay [11], 21.1 µM (inactive); in assay [13], 16.1 µM (inactive). For the same compound, the GI50 in [14] was 26.4 µM (inactive); in assay [15] it was 55.8 µM (inactive); in assay [16], 37.7 µM (inactive); in assay [17], 21.2 µM (inactive).

With `Oc1ncnc2c1nnn2CCCn1nnc2c(O)ncnc21`, the GI50 in assay [1], in assay [2], in [3], in [4], in [5] and in assay [6] was > 100 µM (inactive) throughout. Besides, the GI50 in assay [7], in assay [8], in assay [9], in [10], in assay [11] and in assay [13] was > 100 µM (inactive) throughout. Besides, the GI50 in assay [14], in assay [15], in assay [16] and in assay [17] was > 100 µM (inactive) each time.

`CC1=NN(C(=O)c2ccc([N+](=O)[O-])cc2)C(=O)C1/N=N/c1ccccc1C(=O)O` (stereo not given): the GI50 in assay [1] was > 100 µM (inactive); in assay [2] it was > 100 µM (inactive); in [3] it was 75 µM (inactive); in assay [4] it was > 100 µM (inactive); in assay [6] it was > 100 µM (inactive); in [7] it was > 100 µM (inactive). Also, the GI50 in assay [8] was 32.1 µM (inactive); in [9] it was > 100 µM (inactive); in assay [10], 79.4 µM (inactive); in [11] it was > 100 µM (inactive); in assay [13], > 100 µM (inactive); in [14] it was > 100 µM (inactive). Further, the GI50 in assay [15] was > 100 µM (inactive); in assay [16] it was 99.1 µM (inactive); in assay [17] it was > 100 µM (inactive).

Consider `COc1cc2c(c(OC)c1OC)-c1ccc(SC)cc1C(O)CC2` (stereo not given), for which the GI50 in assay [1] was 12.1 µM (inactive); in assay [2] it was < 0.01 µM (active); in [3], < 0.01 µM (active); in assay [4] it was < 0.01 µM (active); in assay [6] it was < 0.01 µM (active); in assay [18] it was < 0.01 µM (active). Further, the GI50 in assay [7], in assay [9], in assay [10], in [11], in assay [12] and in assay [13] was < 0.01 µM (active) each time. In addition, the figures for the GI50 in assay [14] and in [15] were < 0.01 µM (active) and 41 µM (inactive), respectively.

On to `O=C(O/N=C1/CCC/C1=C\c1ccccc1)c1ccc(Cl)cc1`, for which the GI50 in assay [1] was > 60.4 µM (inactive); in assay [2], 60.5 µM (inactive); in [3], > 100 µM (inactive); in assay [4], > 100 µM (inactive); in [5], > 54.3 µM (inactive); in assay [6] it was > 100 µM (inactive). Moreover, the GI50 is > 100 µM (inactive) in assay [7]; > 95.7 µM (inactive) in [8]; 50.8 µM (inactive) in assay [9]; > 58.2 µM (inactive) in [10]; 36 µM (inactive) in [11]; > 65.9 µM (inactive) in [13]. Also, the GI50 in assay [14] was > 77.4 µM (inactive); in assay [15] it was 38.9 µM (inactive); in assay [16], 46.6 µM (inactive); in assay [17], 58.9 µM (inactive).

Turning to `C=C1c2c(n(S(=O)(=O)c3ccccc3)c3ccccc23)[C@@]2(C(=O)OC)CC3C=CC2N1C3`, the GI50 in assay [2], in assay [3], in assay [4], in assay [5], in assay [6] and in assay [18] was > 100 µM (inactive) in each case. Besides, the GI50 in assay [7], in [8], in [9], in [10], in [19] and in [11] was > 100 µM (inactive) in each case. Further, the GI50 was > 100 µM (inactive) in assay [12]; 41.3 µM (inactive) in assay [13]; > 100 µM (inactive) in [14]; > 100 µM (inactive) in assay [15]; > 100 µM (inactive) in assay [16].

For `O=[N+]([O-])c1nccn1COCCO`, the GI50 in [1], in assay [2], in assay [3], in [4], in assay [5] and in assay [6] was > 100 µM (inactive) in each case. For the same compound, the GI50 in assay [7] was 0.442 µM (active); in assay [8], > 100 µM (inactive); in [9] it was > 100 µM (inactive); in [10] it was > 100 µM (inactive); in assay [13], > 100 µM (inactive); in assay [14] it was > 100 µM (inactive). For the same compound, the GI50 in assay [15] and in [16] was > 100 µM (inactive) each time.

`CCOC(=O)N(CC)c1c(C(F)(F)F)cc(-c2ccccc2)[nH]c1=O`: the GI50 in assay [1] is 50.7 µM (inactive); in assay [2], 58.6 µM (inactive); in [3], 16.4 µM (inactive); in assay [4], 54.2 µM (inactive); in assay [5], 73.5 µM (inactive); in [6], 36.1 µM (inactive). For the same compound, the GI50 is 22.8 µM (inactive) in assay [18]; 25.8 µM (inactive) in [7]; > 100 µM (inactive) in assay [8]; 52.2 µM (inactive) in assay [9]; 24.7 µM (inactive) in assay [19]; 37.1 µM (inactive) in [11]. Besides, the GI50 in assay [12] is 46.5 µM (inactive); in assay [13], 14.5 µM (inactive); in assay [15], 97.9 µM (inactive); in assay [16], 55.2 µM (inactive); in assay [17], 56.1 µM (inactive).

With `CCCCSC(=CC(=O)c1cccc(C(=O)C=C(SCCCC)SCCCC)n1)SCCCC`, the GI50 in assay [1], in assay [2], in [3], in [4], in assay [5] and in assay [6] was > 100 µM (inactive) each time. Further, the GI50 in assay [7], in [8], in [9], in assay [10], in assay [11] and in [13] was > 100 µM (inactive) throughout. The GI50 in assay [14], in assay [15], in assay [16] and in assay [17] was > 100 µM (inactive) each time.
